In this test the target is T1, mouse VISTA (mVISTA) (Mus musculus, UniProt Q9D659).
T1 construct: expressed in transfected cells; host or cells: Human embryonic kidney 293T cells
T1 sequence (Q9D659 33-308): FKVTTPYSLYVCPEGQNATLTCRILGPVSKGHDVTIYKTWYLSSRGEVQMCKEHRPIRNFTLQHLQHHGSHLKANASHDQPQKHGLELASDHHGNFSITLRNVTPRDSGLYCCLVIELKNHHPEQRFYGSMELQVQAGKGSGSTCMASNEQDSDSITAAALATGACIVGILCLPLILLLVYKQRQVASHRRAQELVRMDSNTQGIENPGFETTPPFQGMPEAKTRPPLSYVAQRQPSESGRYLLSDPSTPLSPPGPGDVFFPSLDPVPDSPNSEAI
The test is described as follows: Cell-Based Binding High-Content Assay For mVISTA (HC CBA mVISTA). The procedure, abridged: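 293T cells expressing mouse VISTA, with compounds added either after seeding ("no wash") or before seeding and then washed out after 1 h. Biotinylated peptide 2 nM for 30 min at room temperature, then detection with Alexa 647–streptavidin. After fixation with Hoechst stain, plates were high-content imaged; IC50 from four-parameter logistic fit.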

[1] abbreviates: 293T cells expressing mouse VISTA, competition with biotinylated peptide (2 nM), read-out: HC CBA mVISTA IC50.
The mark [2] stands for this setting: cell-based binding high-content assay, mVISTA, read-out: HC CBA miPr ISTA IC50.

Where two headings read alike, the source gives them in different places. Starred links: 1 amine or outer side, 2 acyl side, 3 side chain; linkers in the order of their positions; H or OH if unused. Positions of bridges follow the written chain, without caps; N, C: chain ends. Non-standard residues stand in square brackets, D forms with d. Residues, ends and D or L forms follow the SMILES beside them. Phe(3-Me) = Cc1cccc(C[C@H](N)C(=O)O)c1; γGlu = O=C(O)[C@H](CCC(=O)[*:2])N[*:1]; 2Nal = N[C@@H](Cc1ccc2ccccc2c1)C(=O)O; βAsp = O=C(O)[C@H](CC(=O)[*:2])N[*:1]; Phe(2-Me) = Cc1ccccc1C[C@H](N)C(=O)O; Tic = O=C(O)[C@@H]1Cc2ccccc2CN1; Cit = NC(=O)NCCC[C@H](N)C(=O)O; Ahp(2) = CCCCC[C@H](N)C(=O)O; NMeNle = CCCC[C@H](NC)C(=O)O; Tle = CC(C)(C)[C@H](N)C(=O)O; NHexGly = CCCCCCNCC(=O)O; Nle = CCCC[C@H](N)C(=O)O; Aun = NCCCCCCCCCCC(=O)O; Aze = O=C(O)[C@@H]1CCN1; AEEA = NCCOCCOCC(=O)O

Broadly, the IC50 is the concentration needed to halve the response being measured.

Take `CCCCCCN1CC(=O)N[C@@H](Cc2ccc(O)cc2)C(=O)N[C@@H](CC(C)C)C(=O)N[C@@H](CC(=O)O)C(=O)N[C@@H](CCCNC(=N)N)C(=O)N[C@@H](CC(C)C)C(=O)N[C@@H](CCCCC)C(=O)N2CCC[C@H]2C(=O)N[C@@H](C(C)C)C(=O)N[C@@H](CC(=O)O)C(=O)N[C@H](C(=O)NCC(N)=O)CSCC(=O)N[C@@H](Cc2ccccc2)C(=O)N[C@@H](Cc2ccc(O)cc2)C(=O)N[C@@H](CC(=O)O)C1=O` [Example 1014] ({CH2CO}-FYD[NHexGly]YLDRL[Ahp(2)]PVDCG-NH2; thioether N-14): under setting [1], the IC50 was 0.0184 µM. For the compound `CCCCCCN1CC(=O)N[C@@H](Cc2ccc(O)cc2)C(=O)N[C@@H](C(C)C)C(=O)NCC(=O)N[C@@H](CCCNC(=N)N)C(=O)N[C@@H](CC(C)C)C(=O)N[C@@H](CCCCC)C(=O)N2CCC[C@H]2C(=O)N[C@@H](C(C)C)C(=O)N[C@@H](CC(=O)O)C(=O)N[C@H](C(=O)N[C@@H](CCCNC(=N)N)C(N)=O)CSCC(=O)N[C@@H](Cc2ccc3ccccc3c2)C(=O)N[C@@H](Cc2ccc(O)cc2)C(=O)N[C@@H](CC(=O)O)C1=O` [Ex 1312] ({CH2CO}-[2Nal]YD[NHexGly]YVGRL[Ahp(2)]PVDCR-NH2; thioether N-14), where the note is “cell-based binding high-content assay, mVISTA, the 16th table, read-out: HC CBA mVISTA IC50”, the IC50 was determined as 0.0077 µM. For the compound `CCCCCCN1CC(=O)N[C@@H](Cc2ccc(O)cc2)C(=O)N[C@@H](CC(C)C)C(=O)N[C@@H](CC(N)=O)C(=O)N[C@@H](CCCNC(=N)N)C(=O)N(C)[C@@H](CCCC)C(=O)N[C@@H](CCCCC)C(=O)N2CCC[C@H]2C(=O)N[C@@H](C(C)(C)C)C(=O)N[C@@H](CO)C(=O)N[C@H](C(=O)NCCOCCOCC(=O)N[C@@H](CCC(=O)NCCOCCOCC(=O)NCCCCCCCCCCC(=O)O)C(=O)O)CSCC(=O)N[C@@H](Cc2ccccc2)C(=O)N[C@@H](Cc2c[nH]c3ccccc23)C(=O)N[C@@H](CC(=O)O)C1=O` [compound 2268] ({CH2CO}-FWD[NHexGly]YLNR[NMeNle][Ahp(2)]P[Tle]SC[AEEA][γGlu][AEEA][Aun]-OH; thioether N-14), under “read-out: HC CBA mVISTA IC50”, the IC50 came to 0.0161 µM. Turning to `CCCCCCN1CC(=O)N[C@@H](Cc2ccc(O)cc2)C(=O)N[C@@H](CC(C)C)C(=O)NCC(=O)N[C@@H](CCCNC(=N)N)C(=O)N[C@@H](Cc2ccc(O)cc2)C(=O)N[C@@H](CCCCC)C(=O)N2CCC[C@H]2C(=O)N[C@@H](C(C)C)C(=O)N[C@@H](CO)C(=O)N[C@H](C(=O)NCC(N)=O)CSCC(=O)N[C@@H](Cc2ccccc2)C(=O)N[C@@H](Cc2ccc(O)cc2)C(=O)N[C@@H](CC(=O)O)C1=O` [Example 1094] ({CH2CO}-FYD[NHexGly]YLGRY[Ahp(2)]PVSCG-NH2; thioether N-14), under setting [1], the IC50 was determined as 0.0349 µM. As to `CCCCCCN1CC(=O)N[C@@H](Cc2ccc(O)cc2)C(=O)N[C@@H](CC(C)C)C(=O)N[C@@H](CC(N)=O)C(=O)N[C@@H](CCCNC(=N)N)C(=O)N[C@@H](CC(C)C)C(=O)N[C@@H](CCCCC)C(=O)N2CCC[C@H]2C(=O)N[C@@H](C(C)C)C(=O)N[C@@H](CO)C(=O)N[C@H](C(=O)NCC(=O)NCCOCCOCC(=O)N[C@@H](CC(=O)O)C(=O)NCCOCCOCC(=O)NCCCCCCCCCCC(=O)O)CSCC(=O)N[C@@H](Cc2ccccc2)C(=O)N[C@@H](Cc2ccc(O)cc2)C(=O)N[C@@H](CC(=O)O)C1=O` [compound 2001] ({CH2CO}-FYD[NHexGly]YLNRL[Ahp(2)]PVSCG[AEEA]D[AEEA][Aun]-OH; thioether N-14), the IC50 under setting [2] was 0.0198 µM. Take `CCCCCCN1CC(=O)N[C@@H](Cc2ccc(O)cc2)C(=O)N[C@@H](CCCC)C(=O)NCC(=O)N[C@@H](CCCNC(=N)N)C(=O)N[C@@H](CC(C)C)C(=O)N[C@@H](CCCCC)C(=O)N2CCC[C@H]2C(=O)N[C@@H](C(C)C)C(=O)N[C@@H](CC(=O)O)C(=O)N[C@H](C(=O)NCC(=O)O)CSCC(=O)N[C@@H](Cc2cccc(C)c2)C(=O)N[C@@H](Cc2ccc(O)cc2)C(=O)N[C@@H](CC(=O)O)C1=O` [compound 1431] ({CH2CO}-[Phe(3-Me)]YD[NHexGly]Y[Nle]GRL[Ahp(2)]PVDCG-OH; thioether N-14): the concentration for half-maximal inhibition (IC50) (the 19th table, scaffold drawing 22, read-out: HC CBA mVISTA IC50) amounted to 0.0025 µM. Consider `CCCCCCN1CC(=O)N[C@@H](Cc2ccc(O)cc2)C(=O)N[C@@H](CCCC)C(=O)NCC(=O)N[C@@H](CCCNC(=N)N)C(=O)N[C@@H](CC(C)C)C(=O)N[C@@H](CCCCC)C(=O)N2CCC[C@H]2C(=O)N[C@@H](C(C)C)C(=O)N[C@@H](CC(=O)O)C(=O)N[C@H](C(=O)NCC(=O)NCCOCCOCC(=O)N[C@@H](CC(=O)O)C(=O)NCCOCCOCC(=O)NCCCCCCCCCCC(=O)O)CSCC(=O)N[C@@H](Cc2cccc(C)c2)C(=O)N[C@@H](Cc2ccc(O)cc2)C(=O)N[C@@H](CC(=O)O)C1=O` [compound 2014] ({CH2CO}-[Phe(3-Me)]YD[NHexGly]Y[Nle]GRL[Ahp(2)]PVDCG[AEEA]D[AEEA][Aun]-OH; thioether N-14), for which the IC50 under setting [2] is 0.0164 µM.

With `CCCCCCN1CC(=O)N[C@@H](Cc2ccc(O)cc2)C(=O)N[C@@H](CCCC)C(=O)N[C@@H](CC(N)=O)C(=O)N[C@@H](CCCNC(N)=O)C(=O)N2Cc3ccccc3C[C@H]2C(=O)N[C@@H](CCCCC)C(=O)N2CCC[C@H]2C(=O)N[C@@H](C(C)C)C(=O)N[C@@H](CO)C(=O)N[C@H](C(=O)NCCOCCOCC(=O)N[C@@H](CC(=O)O)C(=O)NCCOCCOCC(=O)NCCCCCCCCCCC(=O)O)CSCC(=O)N[C@@H](Cc2ccc3ccccc3c2)C(=O)N[C@@H](Cc2ccc(O)cc2)C(=O)N[C@@H](CC(=O)O)C1=O` [compound 2315] ({CH2CO}-[2Nal]YD[NHexGly]Y[Nle]N[Cit][Tic][Ahp(2)]PVSC[AEEA]D[AEEA][Aun]-OH; thioether N-14), the IC50 (cell-based binding high-content assay, read-out: HC CBA miPrISTA IC50) was found to be 0.0183 µM. As to `CCCCCCN1CC(=O)N[C@@H](Cc2ccc(O)cc2)C(=O)N[C@@H](CCCC)C(=O)NCC(=O)N[C@@H](CCCNC(=N)N)C(=O)N[C@@H](CC(C)C)C(=O)N[C@@H](CCCCC)C(=O)N2CCC[C@H]2C(=O)N[C@@H](C(C)C)C(=O)N[C@@H](CC(=O)O)C(=O)N[C@H](C(=O)NCC(=O)O)CSCC(=O)N[C@@H](Cc2ccc(O)cc2)C(=O)N[C@@H](Cc2ccccc2)C(=O)N[C@@H](CC(=O)O)C1=O` [compound 1472] ({CH2CO}-YFD[NHexGly]Y[Nle]GRL[Ahp(2)]PVDCG-OH; thioether N-14), for the setting “the 20th table, scaffold drawing 23, read-out: HC CBA mVISTA IC50”, the IC50 amounted to 0.0155 µM. In the case of `CCCCCCN1CC(=O)N[C@@H](Cc2ccc(O)cc2)C(=O)N[C@@H](CC(C)C)C(=O)N[C@@H](CC(N)=O)C(=O)N[C@@H](CCCNC(=N)N)C(=O)N(C)[C@@H](CCCC)C(=O)N[C@@H](CCCCC)C(=O)N2CCC[C@H]2C(=O)N[C@@H](C(C)(C)C)C(=O)N[C@@H](CC(=O)O)C(=O)N[C@H](C(=O)N[C@@H](CC(=O)NCCOCCOCC(=O)N[C@@H](CC(=O)O)C(=O)NCCOCCOCC(=O)NCCCCCCCCCCC(=O)O)C(=O)O)CSCC(=O)N[C@@H](Cc2ccccc2)C(=O)N[C@@H](Cc2c[nH]c3ccccc23)C(=O)N[C@@H](CC(=O)O)C1=O` [compound 2027] ({CH2CO}-FWD[NHexGly]YLNR[NMeNle][Ahp(2)]P[Tle]DC[βAsp][AEEA]D[AEEA][Aun]-OH; thioether N-14), the IC50 under setting [2] was 0.0275 µM.

Consider `CCCCCCN1CC(=O)N[C@@H](Cc2ccc(O)cc2)C(=O)N[C@@H](CCCCC)C(=O)N[C@@H](CC(=O)O)C(=O)N[C@@H](CCCNC(=N)N)C(=O)N(C)[C@@H](CCCC)C(=O)N[C@@H](CCCCC)C(=O)N2CCC[C@H]2C(=O)N[C@@H](C(C)C)C(=O)N[C@@H](CC(=O)O)C(=O)N[C@H](C(=O)N[C@@H](CC(=O)O)C(N)=O)CSCC(=O)N[C@@H](Cc2ccccc2)C(=O)N[C@@H](Cc2ccc(O)cc2)C(=O)N[C@@H](CC(=O)O)C1=O` [Example 1074] ({CH2CO}-FYD[NHexGly]Y[Ahp(2)]DR[NMeNle][Ahp(2)]PVDCD-NH2; thioether N-14), for which the concentration for half-maximal inhibition (IC50) (293T cells expressing mouse VISTA, competition with biotinylated peptide (2 nM), read-out: CBA mVISTA IC50) is 0.0097 µM. As to `CCCCCCN1CC(=O)N[C@@H](Cc2ccc(O)cc2)C(=O)N[C@@H](CC(C)C)C(=O)N[C@@H](CC(N)=O)C(=O)N[C@@H](CCCNC(=N)N)C(=O)N(C)[C@@H](CCCC)C(=O)N[C@@H](CCCCC)C(=O)N2CCC[C@H]2C(=O)N[C@@H](C(C)(C)C)C(=O)N[C@@H](CO)C(=O)N[C@H](C(=O)NCC(N)=O)CSCC(=O)N[C@@H](Cc2ccccc2C)C(=O)N[C@@H](Cc2ccc(O)cc2)C(=O)N[C@@H](CC(=O)O)C1=O` [compound 1205] ({CH2CO}-[Phe(2-Me)]YD[NHexGly]YLNR[NMeNle][Ahp(2)]P[Tle]SCG-NH2; thioether N-14), the 50% inhibitory concentration (IC50) (read-out: HC CBA mVISTA IC50) came out at 0.0164 µM.

As for `CCCCCCN1CC(=O)N[C@@H](Cc2ccc(O)cc2)C(=O)N[C@@H](CCCC)C(=O)N[C@@H](CC(N)=O)C(=O)N[C@@H](CCCNC(=N)N)C(=O)N(C)[C@@H](CCCC)C(=O)N[C@@H](CCCCC)C(=O)N2CC[C@H]2C(=O)N[C@@H](Cc2ccccc2)C(=O)N[C@@H](CO)C(=O)N[C@H](C(=O)N[C@@H](CC(=O)NCCOCCOCC(=O)NCCCCCCCCCCC(=O)O)C(=O)O)CSCC(=O)N[C@@H](Cc2ccccc2)C(=O)N[C@@H](Cc2c[nH]c3ccccc23)C(=O)N[C@@H](CC(=O)O)C1=O` [Example 2188] ({CH2CO}-FWD[NHexGly]Y[Nle]NR[NMeNle][Ahp(2)][Aze]FSC[βAsp][AEEA][Aun]-OH; thioether N-14), the half-maximal inhibitory concentration (IC50) (read-out: HC CBA mVISTA IC50) is 0.0473 µM.
